Source: patent US20130251743A1, “Fungal extracts and uses thereof” (CERMEDI OY, priority 2010, published 2013)

Tested on: human retinal pigment epithelial cells (hRPE)
Assay: WST-1 cytotoxicity test of hRPE cells exposed to hydrogen peroxide-induced oxidative stress
Format: cell-based
Details: ARPE-19 cells exposed to H2O2
Procedure: Human ARPE-19 retinal pigment epithelial cells (RPE) were obtained from American Type Culture Collection (USA). The cells were grown to confluency in a standard incubator in appropriate Dulbecco's MEM/Nut MIX F-12 medium (Gibco, UK). Oxidative stress was applied to the cells (1×10^4 cells/well) by using various concentrations of H2O2. Cytotoxicity was evaluated by two cytotoxicity tests, WST-1 test. WST-1 test reagent was purchased from Roche, Basel, Switzerland. WST-1 test is based on the cleavage of the tetrazolium salt WST-1 (4-*3-(4-iodophenyl)-2-(4-nitrophenyl)-2H-5-tetrazolio*-1,3-benzene disulfonate, slightly red) to formazan (dark red) by various mitochondrial dehydrogenase enzymes. The mean optical density values corresponding to the non-treated controls were taken as 100%. The results were expressed as percentages of the optical density of treated vs. untreated controls. Dose-response curves were drawn from the results expressed as mean±standard error of mean (SEM) by Graph Pad Prism software (GraphPad™, San Diego, US) using non-linear regression analysis. […] The statistical significance of the differences between the cultures exposed to H2O2 and tested extracts without or with serum was determined with the Student's two-tailed t-test (GraphPad Prism). […]

## COc1cc(C[C@@H](CO)[C@H](CO)Cc2ccc(O)c(OC)c2)ccc1O [secoisolariciresinol (SECO), secoisolariciresinol]
  protection of hRPE cells against oxidative damage (WST-1 test): did not protect hRPE cells from oxidative damage
